Experimental data published in ChEMBL document CHEMBL5137119, “Total Syntheses and Antibacterial Evaluations of Neocyclomorusin and Related Flavones” (2022).
≈ marks a conversion by molar mass, not a printed value.

How the values were obtained:
Type in all cases: functional
[1] = system: Bacillus subtilis; test: Antibacterial activity against Bacillus subtilis ATCC 11774 assessed as inhibition of bacterial growth incubated for 24 hrs by optical density based analysis
[2] = system: Escherichia coli; test: Antibacterial activity against Escherichia coli ATCC 25922 assessed as inhibition of bacterial growth incubated for 24 hrs by optical density based analysis
[3] = system: Staphylococcus epidermidis; test: Antibacterial activity against Staphylococcus epidermidis ATCC 51625 assessed as inhibition of bacterial growth incubated for 24 hrs by optical density based analysis
[4] = system: Staphylococcus aureus; test: Antibacterial activity against Staphylococcus aureus ATCC 25923 assessed as inhibition of bacterial growth incubated for 24 hrs by optical density based analysis
[5] = system: Staphylococcus aureus; test: Antibacterial activity against Staphylococcus aureus assessed as inhibition of bacterial growth
[6] = system: Klebsiella aerogenes; test: Antibacterial activity against Enterobacter aerogenes assessed as inhibition of bacterial growth incubated for 18 hrs by p-iodonitrotetrazolium chloride dye based colorimetric assay
[7] = system: Escherichia coli; test: Antibacterial activity against Escherichia coli assessed as inhibition of bacterial growth incubated for 18 hrs by p-iodonitrotetrazolium chloride dye based colorimetric assay
[8] = system: Enterobacter cloacae; test: Antibacterial activity against Enterobacter cloacae assessed as inhibition of bacterial growth incubated for 18 hrs by p-iodonitrotetrazolium chloride dye based colorimetric assay
[9] = system: Pseudomonas aeruginosa; test: Antibacterial activity against Pseudomonas aeruginosa assessed as inhibition of bacterial growth incubated for 18 hrs by p-iodonitrotetrazolium chloride dye based colorimetric assay
[10] = system: Klebsiella pneumoniae; test: Antibacterial activity against Klebsiella pneumoniae assessed as inhibition of bacterial growth incubated for 18 hrs by p-iodonitrotetrazolium chloride dye based colorimetric assay
[11] = system: Providencia stuartii; test: Antibacterial activity against Providencia stuartii assessed as inhibition of bacterial growth incubated for 18 hrs by p-iodonitrotetrazolium chloride dye based colorimetric assay

Row | MIC [5] [µg/mL] | MIC [6] [µg/mL] | MIC [7] [µg/mL] | MIC [8] [µg/mL] | MIC [9] [µg/mL] | MIC [10] [µg/mL] | MIC [11] [µg/mL] | SMILES | MIC [1] [µg/mL] | MIC [2] [µg/mL] | MIC [3] [µg/mL] | MIC [4] [µg/mL]
1 | 128 (≈ 333 µM) |  |  |  |  |  |  | COc1cc(O)c2c(=O)c3c(oc2c1)-c1ccc(O)cc1OC(C(C)(C)O)C3 (stereo unspecified) | > 128 | > 128 | > 128 | 128 (≈ 333 µM)
2 |  |  |  |  |  |  |  | CC1(C)S[C@@H]2[C@H](NC(=O)[C@H](N)c3ccccc3)C(=O)N2[C@H]1C(=O)O [AMPICILLIN] | > 128 | 64 (≈ 183 µM) | 128 (≈ 366 µM) | 4 (≈ 11.4 µM)
3 |  |  |  |  |  |  |  | CC(C)=CCc1c(-c2ccc(O)cc2O)oc2cc3c(c(O)c2c1=O)C=CC(C)(C)O3 [CUDRAFLAVONE B] | 16 (≈ 38.1 µM) | > 128 | 16 (≈ 38.1 µM) | 4 (≈ 9.51 µM)
4 |  |  |  |  |  |  |  | NC[C@H]1O[C@H](O[C@H]2[C@H](O)[C@@H](O[C@H]3O[C@H](CO)[C@@H](O)[C@H](N)[C@H]3O)[C@H](N)C[C@@H]2N)[C@H](O)[C@@H](O)[C@@H]1O [KANAMYCIN] | 2 (≈ 4.13 µM) | 16 (≈ 33 µM) | 1 (≈ 2.06 µM) | 4 (≈ 8.26 µM)
5 |  |  |  |  |  |  |  | CC(C)=CCc1c(-c2ccc(O)cc2O)oc2c3c(cc(O)c2c1=O)OC(C)(C)C=C3 [MORUSIN] | 16 (≈ 38.1 µM) | > 128 | 8 (≈ 19 µM) | 8 (≈ 19 µM)
6 |  | 4 (≈ 9.16 µM) | 4 (≈ 9.16 µM) | 4 (≈ 9.16 µM) | 4 (≈ 9.16 µM) | 4 (≈ 9.16 µM) | 4 (≈ 9.16 µM) | CC1(C)C=Cc2c(cc(O)c3c(=O)c4c(oc23)-c2ccc(O)cc2OC(C(C)(C)O)C4)O1 (stereo unspecified) [NEOCYCLOMORUSIN] | 64 (≈ 147 µM) | > 128 | > 128 | 64 (≈ 147 µM)
